According to US20220033434A1, “ANDROGEN RECEPTOR NUCLEIC ACIDS AND USES THEREOF” (Avidity Biosciences, Inc., priority 2016, published 2022):
In the oligonucleotide strings, read from the 5' end, every base follows the letter of its sugar. An asterisk marks phosphorothioate; unmarked linkages are phosphodiester. Other units and linkages are bracketed, terminal groups are in braces. A string of capitals states the bases alone. d = 2'-deoxy (DNA); m = 2'-O-methyl; f = 2'-fluoro

Experiments:
Assay type in all cases: cell-based, human
AR-SV(2) = experiment: AR protein knock-down by Western blot after siRNA transfection in 22RV1 cells: AR-SV(2); settings: 5 nM siRNA, 50 h post transfection, compared to controls
Procedure: (§1) In some instances, a set of AR siRNAs were identified that were predicted to be specific in human and non-human primates (NHP) and cross-reactive with NHPs but not rodent AR mRNA. To identify AR siRNAs that regulate both full length AR and clinically relevant AR splice variants, the search for AR siRNAs was focused primarily, but not exclusively, on exons 1, 2 and 3 of the AR gene, which are common to most AR isoforms. The resulting set of 50 AR siRNAs (Tables 1-3) was assessed in two prostate cancer lines that express high levels of either clinically relevant AR splice variants (22RV1, ATCC) or a full length AR T877A LBD mutant (LNCaP, ATCC). The response of LNCaP tumors in xenograft models to AR antagonists is known to correlate well with clinical responses.
(§2) To monitor their ability to downregulate various AR isoforms, each siRNA was formulated at a single final concentration of 5 nM with a commercially-available transfection reagent (Lipofectamine RNAiMAX, Life Technologies) according to the manufacturer's “forward transfection” instructions. At 50 h (22RV1) and 72 h (LNCaP) post transfection, cells were harvested, and lysed in RIPA buffer (Pierce) supplemented with HALT protease inhibitors (Pierce) using standard procedures. The protein concentration was determined using a BCA protein concentration kit (Pierce). To monitor AR levels in these lysates, proteins (30 ug/lane) were separated by PAGE on BOLT 4-12% Bis-Tris PA gels (Life Technologies), transferred to nitrocellulose using an iBlot dry blot system (Thermo Fisher), and probed with specific antibodies against a region of the N-terminal domain of human AR that is common in known clinically relevant splice variants (N20, Santa Cruz Biotech). A second antibody against α-Tubulin was used as control (P16, Santa Cruz Biotech). Levels of these proteins in the respective cell lysates were quantified on an Odyssey imaging system (LICOR) using appropriate secondary antibodies linked to IRDyes (800CW, 680RD).

[1] = tested on: AR FL (full length AR T877A LBD mutant); experiment: AR protein knock-down by Western blot after siRNA transfection in LNCaP cells: AR FL; settings: 5 nM siRNA, 72 h post transfection, compared to controls
Procedure: as §1, §2

AR-SV(3) = experiment: AR protein knock-down by Western blot after siRNA transfection in 22RV1 cells: AR-SV(3); settings: 5 nM siRNA, 50 h post transfection, compared to controls
Procedure: as §1, §2

AR FL(1) = experiment: AR protein knock-down by Western blot after siRNA transfection in 22RV1 cells: AR FL(1); settings: 5 nM siRNA, 50 h post transfection, compared to controls
Procedure: as §1, §2

Row | Substance | % KD AR Protein 22RV1 AR-SV(2) (AR-SV(2)) [%] | % KD AR Protein LNCaP AR FL [1] [%] | % KD AR Protein 22RV1 AR-SV(3) (AR-SV(3)) [%] | % KD AR Protein 22RV1 AR FL(1) (AR FL(1)) [%]
1 | XD-01842: AR siRNA with chemical modification, Id # 2940; sense X05379 (SEQ ID NO: 209), antisense X05380 (SEQ ID NO: 210) (sense mAmGfGmAfAmAfAmAfUmUfGmUfCmCfAmUfCmUfUdT*dT; antisense fAfAmGfAmUfGmGfAmCfAmAfUmUfUmUfUmCfCmUdT*dT) | 94 | 101 | 84 | 89
2 | XD-01860: AR siRNA with chemical modification, Id # 3629; sense X05415 (SEQ ID NO: 245), antisense X05416 (SEQ ID NO: 246) (sense mAmCfUmCfGmAfUmCfGmUfAmUfCmAfUmUfGmCfAdT*dT; antisense fUfGmCfAmAfUmGfAmUfAmCfGmAfUmCfGmAfGmUdT*dT) | −9 | 99 | 4 | 90
3 | XD-01814: AR siRNA with chemical modification, Id # 1784; sense X05323 (SEQ ID NO: 153), antisense X05324 (SEQ ID NO: 154) (sense mCmAfAmUfUmAfCmUfUmAfGmGfGmGfGmCfAmCfUdT*dT; antisense fAfGmUfGmCfCmCfCmCfUmAfAmGfUmAfAmUfUmGdT*dT) | 20 | 94 | −30 | −7
4 | XD-01843: AR siRNA with chemical modification, Id # 2961; sense X05381 (SEQ ID NO: 211), antisense X05382 (SEQ ID NO: 212) (sense mCmGfUmCfUmUfCmGfGmAfAmAfUmGfUmUfAmUfGdT*dT; antisense fCfAmUfAmAfCmAfUmUfUmCfCmGfAmAfGmAfCmGdT*dT) | 75 | 94 | 47 | 78
5 | XD-01858: AR siRNA with chemical modification, Id # 3475; sense X05411 (SEQ ID NO: 241), antisense X05412 (SEQ ID NO: 242) (sense mGmAfAmUfGmAfGmGfCmAfCmCfUmCfUmCfUmCfAdT*dT; antisense fUfGmAfGmAfGmAfGmGfUmGfCmCfUmCfAmUfUmCdT*dT) | 25 | 99 | 66 | 93
6 | XD-01837: AR siRNA with chemical modification, Id # 2927; sense X05369 (SEQ ID NO: 199), antisense X05370 (SEQ ID NO: 200) (sense mUmGfAmUfAmAfAmUfUmCfCmGfAmAfGmGfAmAfAdT*dT; antisense fUfUmUfCmCfUmUfCmGfGmAfAmUfUmUfAmUfCmAdT*dT) | 94 | 91 | 86 | 87
7 | XD-01859: AR siRNA with chemical modification, Id # 3481; sense X05413 (SEQ ID NO: 243), antisense X05414 (SEQ ID NO: 244) (sense mGmGfCmAfCmCfUmCfUmCfUmCfAmAfGmAfGmUfUdT*dT; antisense fAfAmCfUmCfUmUfGmAfGmAfGmAfGmGfUmGfCmCdT*dT) | −23 | 100 | −49 | 87
8 | XD-01836: AR siRNA with chemical modification, Id # 2925; sense X05367 (SEQ ID NO: 197), antisense X05368 (SEQ ID NO: 198) (sense mAmUfUmGfAmUfAmAfAmUfUmCfCmGfAmAfGmGfAdT*dT; antisense fUfCmCfUmUfCmGfGmAfAmUfUmUfAmUfCmAfAmUdT*dT) | 83 | 91 | 73 | 87
9 | XD-01844: AR siRNA with chemical modification, Id # 2962; sense X05383 (SEQ ID NO: 213), antisense X05384 (SEQ ID NO: 214) (sense mGmUfCmUfUmCfGmGfAmAfAmUfGmUfUmAfUmGfAdT*dT; antisense fUfCmAfUmAfAmCfAmUfUmUfCmCfGmAfAmGfAmCdT*dT) | 54 | 81 | 26 | 56
10 | XD-01839: AR siRNA with chemical modification, Id # 2933; sense X05373 (SEQ ID NO: 203), antisense X05374 (SEQ ID NO: 204) (sense mAmUfUmCfCmGfAmAfGmGfAmAfAmAfAmUfUmGfUdT*dT; antisense fAfCmAfAmUfUmUfUmUfCmCfUmUfCmGfGmAfAmUdT*dT) | 62 | 93 | 56 | 76
11 | XD-01822: AR siRNA with chemical modification, Id # 2263; sense X05339 (SEQ ID NO: 169), antisense X05340 (SEQ ID NO: 170) (sense mCmCfCmAfCmGfCmUfCmGfCmAfUmCfAmAfGmCfUdT*dT; antisense fAfGmCfUmUfGmAfUmGfCmGfAmGfCmGfUmGfGmGdT*dT) | 33 | 88 | 41 | 34
12 | XD-01854: AR siRNA with chemical modification, Id # 3416; sense X05403 (SEQ ID NO: 233), antisense X05404 (SEQ ID NO: 234) (sense mUmGfAmUfCmUfGmGfUmUfUmUfCmAfAmUfGmAfGdT*dT; antisense fCfUmCfAmUfUmGfAmAfAmAfCmCfAmGfAmUfCmAdT*dT) | 38 | 93 | 46 | 95
13 | XD-01849: AR siRNA with chemical modification, Id # 3105; sense X05393 (SEQ ID NO: 223), antisense X05394 (SEQ ID NO: 224) (sense mCmAfCmAfUmUfGmAfAmGfGmCfUmAfUmGfAmAfUdT*dT; antisense fAfUmUfCmAfUmAfGmCfCmUfUmCfAmAfUmGfUmGdT*dT) | 7 | 92 | −40 | 86
14 | XD-01840: AR siRNA with chemical modification, Id # 2935; sense X05375 (SEQ ID NO: 205), antisense X05376 (SEQ ID NO: 206) (sense mUmCfCmGfAmAfGmGfAmAfAmAfAmUfUmGfUmCfCdT*dT; antisense fGfGmAfCmAfAmUfUmUfUmUfCmCfUmUfCmGfGmAdT*dT) | 89 | 97 | 75 | 89
15 | XD-01834: AR siRNA with chemical modification, Id # 2923; sense X05363 (SEQ ID NO: 193), antisense X05364 (SEQ ID NO: 194) (sense mCmUfAmUfUmGfAmUfAmAfAmUfUmCfCmGfAmAfGdT*dT; antisense fCfUmUfCmGfGmAfAmUfUmUfAmUfCmAfAmUfAmGdT*dT) | 91 | 91 | 79 | 90
